{"source": "patent US20240287614A1", "about": "“RECIPROCAL MICRORNA-MRNA PAIRINGS AS BIOMARKERS AND THERAPEUTIC TARGETS IN CANCER” (UNIVERSITY OF MARYLAND, EASTERN SHORE, priority 2023, published 2024)", "key": {"MTOR [1]": {"system": "MTOR", "test": "Western blot of mTOR in transfected prostate cancer cells", "assay_type": "cell-based, human", "details": "mimic transfection vs NS transfection", "experimental": "(§1) […] RC77 T/E, a primary prostate cancer cell line derived from a patient, was kindly provided by Dr. Johng Rhim at Center for Prostate Disease Research (CPDR) in Rockville, MD. LNCaP and PC-3 were served as prostate cancer cell line models, and RC77 T/E and MDA PCa 2b were served as prostate cancer cell models in the study. The cells were cultured in specific cell culture media, LNCaP was cultured in RPMI with 10% fetal bovine serum (FBS), PC-3 was cultured in DMEM with 10% FBS, MDA PCa 2b were cultured in BRFF-HPC1 with 20% FBS and RC77 T/E was cultured in Keratinocyte SFM with Human Recombinant Epidermal Growth Factor (EGF 1-53) and Bovine Pituitary Extract (BPE). Cells were maintained at 37° C. in a 5% CO2 incubator. LNCaP, PC-3 and MDA PCa 2b cells were seeded at density 3×10^4 cells/well in 6-well plates. RC77 T/E cells were seeded at density 5×10^4 cells/well in 6-well plates. […]\nFor measurement of the gene expression at protein level, proteins were extracted using M-PER Mammalian Protein Extraction Reagent (Thermo Fisher Scientific) with protease and phosphatase inhibitor cocktail (Thermo Fisher Scientific). Protein concentrations were quantified using BCA assay kit (Thermo Fisher Scientific). […]"}, "[2]": {"system": "prostate cancer (LNCaP and PC-3) and prostate cancer (RC77 T/E and MDA PCa 2b) cell lines", "test": "Caspase 3/7 activity-based apoptosis assay, prostate cancer cell lines", "set-up": "species or system human", "experimental": "[…] RC77 T/E, a primary prostate cancer cell line derived from a patient, was kindly provided by Dr. Johng Rhim at Center for Prostate Disease Research (CPDR) in Rockville, MD. LNCaP and PC-3 were served as prostate cancer cell line models, and RC77 T/E and MDA PCa 2b were served as prostate cancer cell models in the study. The cells were cultured in specific cell culture media, LNCaP was cultured in RPMI with 10% fetal bovine serum (FBS), PC-3 was cultured in DMEM with 10% FBS, MDA PCa 2b were cultured in BRFF-HPC1 with 20% FBS and RC77 T/E was cultured in Keratinocyte SFM with Human Recombinant Epidermal Growth Factor (EGF 1-53) and Bovine Pituitary Extract (BPE). Cells were maintained at 37° C. in a 5% CO2 incubator. LNCaP, PC-3 and MDA PCa 2b cells were seeded at density 3×10^4 cells/well in 6-well plates. RC77 T/E cells were seeded at density 5×10^4 cells/well in 6-well plates. The cells were allowed to grow for 24 h and then were either transfected with miR-34a-5p mimic, miR-99b-5p mimic, or miR-96-5p antagomir using DharmaFECT4 transfection reagent (Dharmacon), according to the manufacturer's protocol. After 24 h, the cells were replaced with fresh media then incubated for 24 h. miR-34a-5p mimic, miR-99b-5p mimic, miR-96-5p antagomir, and nonsense miRNA mimic and antagomir controls were purchased from Ambion. Nonsense/scrambled miRNA mimic and antagomir were used as negative controls.\nFor the measurement of apoptosis initiation by transfection of miRNA mimic or antagomir in prostate cancer cells, the transfected cells 5000 cells/well were seeded onto 96-well cell culture plates (Corning) and then incubated overnight. The miRNA mimic/antagomir transfected cells were then treated with vehicle or […] of Docetaxel. 24 h after the vehicle or drug treatment, the apoptosis assays were performed using Apo-ONE Caspase-3/7 Assay Kit (Promega Corporation) according to the protocol described by the manufacturer. 100 μL of homogeneous Caspase-3/7 reagent was added to the sample plate and incubated at room temperature for 1 h. Fluorescence was detected for measuring the apoptosis state (Caspase 3/7 activity) using Biotek Synergy HT Microplate Reader (BioTek) at wavelengths of 499 nm and 521 nm for excitation and emission, respectively."}, "MTOR [3]": {"system": "MTOR", "test": "RT-qPCR of MTOR expression after miRNA mimic transfection", "assay_type": "cell-based, human", "details": "African American and European American prostate cancer cells; vs nonsense/scrambled (NS) miRNA control", "experimental": "as §1\nFor the measurement of gene expression level, total RNA was isolated using miRNeasy Mini Kit (50) (Qiagen) from the prostate cancer cells used in the study. Quantification of total RNA samples were done using NanoVue Plus spectrophotometer (GE Healthcare). […] Reverse transcription was performed using iScript Reverse Transcription Supermix kit (Bio-Rad) to generate cDNA then followed by performing quantitative PCR (qPCR) assays using SsoAdvanced Universal SYBR Green supermix kit (Bio-Rad). […]"}, "[4]": {"system": "HT-29, SW620, MDA MB 231, MCF7, A549, and H1299", "test": "Caspase 3/7 activity-based apoptosis assay, colon, breast and lung cancer cell lines", "set-up": "species or system human", "experimental": "HT-29, SW620, MDA MB 231, MCF7, A549, and H1299 were seeded at a density of 3×10^4 cells/well in 96-well plates. The cells were grown overnight and then followed by transfections. After 24 h, fresh media were applied to replace the transfection reagent-containing media with […] of docetaxel or vehicle, then the cells were incubated for an additional 24 h. The Apo-ONE Caspase-3/7 Assay Kit (Promega Corporation) was used to measure apoptosis according to the protocol described by the manufacturer. Then, 100 μL of homogeneous Caspase-3/7 reagent was added to each well and the plate incubated at room temperature for 30 min to 2 h. Fluorescence was detected for measuring (at wavelengths of 499/521 nm excitation/emission) the apoptosis state (Caspase 3/7 activity) using Biotek Synergy HT Microplate Reader (BioTek)."}}}
{"substance": "miR-99b-5p mimic: miRNA mimic of miR-99b-5p (SEQ ID NO: 2, CACCCGUAGAACCGACCUUGCG), purchased from Ambion (listed as RNA, chemistry not given here; listed as Homo sapiens)", "values": [{"measurement": "mTOR level (Western blot)", "setting": "MTOR [1]", "result": "downregulated"}, {"measurement": "docetaxel-induced cytotoxicity (caspase 3/7 activity), combination with docetaxel", "setting": "[2]; LNCaP cells, 11 mM of Docetaxel, 24 h", "result": "further enhanced"}, {"measurement": "apoptosis (caspase 3/7 activity), transfection in the presence of docetaxel", "setting": "[2]; RC77 T/E and MDA PCa 2b, 11 mM of Docetaxel, 24 h", "result": "significantly induced apoptosis"}, {"measurement": "cell apoptosis (caspase 3/7 activity) compared with NS transfected cells", "setting": "[2]; absence of docetaxel (vehicle control), LNCaP, PC-3, RC77 T/E, MDA PCa 2b", "result": "overall generalized or significant increase"}, {"measurement": "MTOR expression (RT-qPCR)", "setting": "MTOR [3]", "result": "decreased"}, {"measurement": "cell apoptosis (caspase 3/7 activity) in the presence of docetaxel", "setting": "[4]; HT-29, SW620, MCF-7, A549, H1299, 11 mM of docetaxel, 24 h", "result": "moderate to significant cell apoptosis"}, {"measurement": "apoptosis (caspase 3/7 activity), single agent", "setting": "[4]; colon, breast, lung cancer cells, without docetaxel (vehicle)", "result": "not sufficient to initiate significant apoptosis"}]}
